What all share (format): biochemical
Experiment [1] concerns the target T1, FTase (Homo sapiens, UniProt P49356).
T1 construct: FTase and GGTase I activities from 60,000×g supernatants of human Burkitt lymphoma (Daudi) cells; endogenous in cells; host or cells: human Burkitt lymphoma (Daudi) cells, 60,000xg supernatant (partially purified)
The experiment is described as follows: FTase activity assay: transfer of [3H]farnesyl from FPP to recombinant H-Ras-CVLS, Daudi 60,000xg supernatant. The settings on record: for Selectivity: FTase over GGTase I; for GG/F: ratio GGTase I IC50 / FTase IC50. On the procedure:
FTase and GGTase I activities from 60,000×g supernatants of human Burkitt lymphoma (Daudi) cells (ATCC, Rockville, Md., USA) were assayed as described previously for FTase (41). Briefly, 100 μg of the supernatant was incubated in 50 mM Tris, pH 7.5, 50 μM ZnCl2, 20 mM KCl and 1 mM dithiothreitol (DTT).
Human Burkitt lymphoma (Daudi) cells (ATCC, Rockville, Md.) were grown in suspension in RPMI 1640 medium containing 10% fetal bovine serum (FBS) and 1% Pen-Strep in a humidified 10% CO2 incubator at 37° C. The cells were harvested and sonicated in 50 mM Tris, pH 7.5, 1 mM EDTA, 1 mM EGTA, 25 μg/ml leupeptin, 1 mM phenylmethylsulfonyl fluoride. Homogenates were then spun at 12,000×g and the resulting supernatant further spun at 60,000×g. The supernatant was assayed for both FTase and GGTase I. Briefly, 100 μg of the supernatants was incubated in 50 mM Tris, pH 7.5, 50 μM ZnCl2, 20 mM KCl, 3 mM MgCl2 and 1 mM DTT. […] FPP (625 nM; 16.3 Ci/mmol). For GGTase assays, the reaction was also incubated for 30 minutes at 37° C. but with recombinant H-Ras-CVLL (5 μM) and [^3 H] GGPP (525 nM; 19.0 Ci/mmol). The reaction was stopped and passed through glass fiber filters to separate free and incorporated label. For inhibition studies, the peptidomimetics were premixed with FTase or GGTase I prior to adding the remainder of the reaction mixture. […] Recombinant H-Ras-CVLL was prepared from bacteria (32).
FTase and GGTase I activities from 60,000×g supernatants of human Burkitt lymphoma (Daudi) cells (ATCC, Rockville, Md.) were assayed exactly as described previously for FTase (41).

The target in another experiment is T2, GGTase I (Homo sapiens, UniProt P53609).
T2 construct: FTase and GGTase I activities from 60,000×g supernatants of human Burkitt lymphoma (Daudi) cells; endogenous in cells; host or cells: human Burkitt lymphoma (Daudi) cells, 60,000xg supernatant (partially purified)
The experiment is described as follows: GGTase I activity assay: transfer of [3H]geranylgeranyl to recombinant H-Ras-CVLL, Daudi 60,000xg supernatant. On the procedure:
FTase and GGTase I activities from 60,000×g supernatants of human Burkitt lymphoma (Daudi) cells (ATCC, Rockville, Md., USA) were assayed as described previously for FTase (41). Briefly, 100 μg of the supernatant was incubated in 50 mM Tris, pH 7.5, 50 μM ZnCl2, 20 mM KCl and 1 mM dithiothreitol (DTT). The reaction was incubated at […] for 30 min with recombinant Ha-Ras-CVLS (11 μM) and [^3 H]FPP (625 nM; 16.3 Ci/mmol) for FTase, and recombinant Ha-Ras-CVLL (5 μM) and [^3 H]geranylgeranylpyrophosphate (525 nM; 19.0 Ci/mmol) for GGTase I. The peptidomimetics were mixed with FTase and GGTase before adding to the reaction mixture.
Human Burkitt lymphoma (Daudi) cells (ATCC, Rockville, Md.) were grown in suspension in RPMI 1640 medium containing 10% fetal bovine serum (FBS) and 1% Pen-Strep in a humidified 10% CO2 incubator at 37° C. The cells were harvested and sonicated in 50 mM Tris, pH 7.5, 1 mM EDTA, 1 mM EGTA, 25 μg/ml leupeptin, 1 mM phenylmethylsulfonyl fluoride. Homogenates were then spun at 12,000×g and the resulting supernatant further spun at 60,000×g. The supernatant was assayed for both FTase and GGTase I. Briefly, 100 μg of the supernatants was incubated in 50 mM Tris, pH 7.5, 50 μM ZnCl2, 20 mM KCl, 3 mM MgCl2 and 1 mM DTT. For FTase assays, the reaction was incubated at 37° C. for 30 minutes with recombinant H-Ras-CVLS (11 μM) and [^3 H] FPP (625 nM; 16.3 Ci/mmol). For GGTase assays, the reaction was also incubated for 30 minutes at 37° C. but with recombinant H-Ras-CVLL (5 μM) and [^3 H] GGPP (525 nM; 19.0 Ci/mmol). The reaction was stopped and passed through glass fiber filters to separate free and incorporated label. For inhibition studies, the peptidomimetics were premixed with FTase or GGTase I prior to adding the remainder of the reaction mixture. Recombinant H-Ras-CVLS was prepared as described previously (26) from bacteria (31). Recombinant H-Ras-CVLL was prepared from bacteria (32).
FTase and GGTase I activities from 60,000×g supernatants of human Burkitt lymphoma (Daudi) cells (ATCC, Rockville, Md.) were assayed exactly as described previously for FTase (41). Inhibition studies were performed by determining the ability of Ras CAAX peptidomimetics to inhibit the transfer of [^3 H]-farnesyl and [^3 H]-geranylgeranyl from [^3 H]FPP and [^3 H]GGPP to H-ras-CVLS and H-Ras-CVLL, respectively (41).

Experiment [2] has as its target T1, FTase. The experiment in a line: Peptidomimetics farnesylation assay (silica gel TLC). The settings on record: Table 4; substrate for farnesylation, TLC. On the procedure: The ability of human Burkitt lymphoma (Daudi) FTase to farnesylate peptides and peptidomimetics was determined as described previously (34, 35). Briefly, 25 μl of reaction mixture containing 50 μg of 60,000×g supernatants and 20 μM peptidomimetic in 50 mM Tris, pH 7.5, 50 μM ZnCl2, 20 mM KCl, 3 mM MgCl2, 1 mM DTT and 0.2% octylβ-D-glucoside was incubated for 30 minutes at 37° C., then spotted onto silica gel G TLC sheets (20×20 cm, Brinkmann Instruments), and developed with n-propanol/5 N ammonium hydroxide/water (6:1:1). The dried sheets were sprayed with En^3 Hance (DuPont NEN) and exposed to x-ray film for detection of [^3 H] farnesylated products.

Where [3] appears, read: Table 4, read-out: GGTase-I IC50.
The mark [4] stands for this setting: Table 1, read-out: GGTase I IC50.

Read-outs that look alike come from different tables or passages of the source.

What is called IC50 is the concentration needed to halve the response being measured.

T2 sequence (P53609 whole entry): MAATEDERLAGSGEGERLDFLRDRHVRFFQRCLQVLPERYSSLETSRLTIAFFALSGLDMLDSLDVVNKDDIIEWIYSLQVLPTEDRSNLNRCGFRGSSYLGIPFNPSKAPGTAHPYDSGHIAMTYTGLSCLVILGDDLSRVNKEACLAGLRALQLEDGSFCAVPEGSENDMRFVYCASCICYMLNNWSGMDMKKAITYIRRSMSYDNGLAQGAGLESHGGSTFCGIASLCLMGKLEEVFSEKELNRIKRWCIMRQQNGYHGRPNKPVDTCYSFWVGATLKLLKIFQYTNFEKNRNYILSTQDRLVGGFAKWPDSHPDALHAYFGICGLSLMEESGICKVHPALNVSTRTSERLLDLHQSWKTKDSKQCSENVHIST
T1 sequence (P49356 whole entry): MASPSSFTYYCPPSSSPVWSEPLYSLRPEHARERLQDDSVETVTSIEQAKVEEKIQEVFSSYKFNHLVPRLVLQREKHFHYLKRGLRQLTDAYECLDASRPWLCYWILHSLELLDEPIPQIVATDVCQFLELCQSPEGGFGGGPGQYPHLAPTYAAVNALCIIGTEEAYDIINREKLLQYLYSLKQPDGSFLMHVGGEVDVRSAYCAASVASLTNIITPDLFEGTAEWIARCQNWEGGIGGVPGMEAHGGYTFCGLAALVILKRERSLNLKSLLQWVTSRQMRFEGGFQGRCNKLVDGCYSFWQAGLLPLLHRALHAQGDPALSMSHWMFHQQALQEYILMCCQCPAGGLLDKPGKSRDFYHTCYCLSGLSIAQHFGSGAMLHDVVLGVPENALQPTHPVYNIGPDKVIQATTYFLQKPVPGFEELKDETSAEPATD

In the case of “4-(Vinylsulfonyl-3-aminoalanyl)-amino-3'-carboxybiphenyl [FTI-296]”, the Selectivity on FTase [1] (Table 4) is above 2. Further, the IC50 was 430 µM on FTase [1] (Table 4, read-out: FTase IC50) and above 1000 µM on GGTase I (setting [3]).
For the compound `N[C@@H](CS)C(=O)NCc1cccc(-c2cccc(C(=O)O)c2)c1` [FTI-238, Cys-3-aminomethyl-3'-carboxybiphenyl], the Substrate result at FTase [2] is reported as “no”. In addition, the Selectivity at FTase [1] (Table 4) is listed as above 1. Also, the 50% inhibitory concentration (IC50) at FTase [1] (Table 4, read-out: FTase IC50) was 100 µM; on GGTase I (setting [3]) it was above 100 µM.
For `COc1cc(C(=O)NC(CCSC)C(=O)O)ccc1NC(=O)C(N)CS.O=C(O)C(F)(F)F` (stereo not shown) [FTI-261, TFA.Cysteine-4-amino-3-methoxybenzoyl methionine], the GG/F on FTase [1] (Table 1) is 20. For the same compound, the IC50 amounted to 2.55 µM at FTase [1] (Table 1, read-out: FTase IC50) and 50 µM at GGTase I (setting [4]).
The corresponding values for `CSCC[C@H](NC(=O)c1ccc(NC(=O)[C@@H](N)CS)cc1-c1ccccc1)C(=O)O.O=C(O)C(F)(F)F` [FTI-272, TFA.Cysteine-4-amino-2-phenylbenzoyl methionine] are 53, 0.005 µM and 0.267 µM.
As for `N[C@@H](CS)CNc1ccc(-c2ccccc2C(=O)O)cc1` [FTI-273, 4-N-[2(R)-Amino-3-mercaptopropyl]amino-2'-carboxybiphenyl], the Selectivity on FTase [1] (Table 4) is 258. Besides, the IC50 at FTase [1] (Table 4, read-out: FTase IC50) was 0.543 µM; at GGTase I (setting [3]) it was 140 µM.
`COC(=O)C(CCSC)NC(=O)c1ccc(NC(=O)C(N)CS)cc1-c1ccccc1.Cl` (stereo not shown) [FTI-274, HCl.cysteine-4-amino-2-phenylbenzoyl methionine methyl ester]: at FTase [1] (Table 1), the GG/F is 15. Besides, the IC50 is 2.05 µM on FTase [1] (Table 1, read-out: FTase IC50) and 30 µM at GGTase I (setting [4]).
`CSCC[C@H](NC(=O)c1ccc(NC(=O)[C@@H](N)CS)cc1-c1cc(C)cc(C)c1)C(=O)O.O=C(O)C(F)(F)F` [FTI-275, TFA.Cysteine-4-amino-2-(3,5-dimethylphenyl)benzoyl methionine]: the GG/F on FTase [1] (Table 1) was 1. For the same compound, the IC50 stood at 0.405 µM at FTase [1] (Table 1, read-out: FTase IC50) and 0.4 µM at GGTase I (setting [4]).
Take `N[C@@H](CS)C(=O)Nc1ccc(-c2cccc(C(=O)O)c2)cc1` [FTI-278, Cysteinyl-4-amino-3'-carboxybiphenyl]: the Selectivity on FTase [1] (Table 4) turned out to be 7. Moreover, the IC50 at FTase [1] (Table 4, read-out: FTase IC50) worked out at 13.5 µM; on GGTase I (setting [3]), 100 µM.
The corresponding values for `COc1cc(NC[C@@H](N)CS)ccc1-c1cccc(C(=O)O)c1` [FTI-281, 2-Methoxy-4-N-[2(R)-amino-3-mercaptopropyl]amino-3'-carboxybiphenyl] are 1090, 0.04 µM and 43.6 µM.
`NCC(N)CNc1ccc(-c2cccc(C(=O)O)c2)cc1` (stereo not drawn) [FTI-282, (DL) 4-(2,3-diaminopropyl)-amino-3' carboxybiphenyl]: on FTase [1] (Table 4), the Selectivity is above 2. Also, the IC50 on FTase [1] (Table 4, read-out: FTase IC50) worked out at 50 µM.
For `N[C@@H](CS)CNCc1cccc(-c2cccc(C(=O)O)c2)c1` [FTI-283, red.Cys-3-aminomethyl-3'-carboxybiphenyl], the Selectivity on FTase [1] (Table 4) is 3. The IC50 on FTase [1] (Table 4, read-out: FTase IC50) stood at 11 µM; on GGTase I (setting [3]) it was 35 µM.
The corresponding values for `Cc1cccc(-c2ccc(NC[C@@H](N)CS)cc2-c2ccccc2)c1` [FTI-285, red.Cys-4-amino-2-phenyl-3'-methylbiphenyl] are 4, 2.08 µM and 8.5 µM.
Take `CCCOc1cc(NC[C@@H](N)CS)ccc1-c1cccc(C(=O)O)c1` [FTI-288, red.Cys-4-amino-2-OPr-3'-carboxybiphenyl]: the Selectivity on FTase [1] (Table 4) is 59. The IC50 on FTase [1] (Table 4, read-out: FTase IC50) worked out at 0.041 µM; at GGTase I (setting [3]), 2.38 µM.
The corresponding values for `N[C@@H](CS)CNc1ccc(-c2cccc(C(=O)O)c2)c(-c2ccccc2)c1` [FTI-289, red.Cys-4-amino-2-phenyl-3'-carboxybiphenyl] are 40, 0.016 µM and 0.643 µM.
For `NCC(N)C(=O)Nc1ccc(-c2cccc(C(=O)O)c2)cc1` (stereo not shown) [FTI-291, 4-(3-Aminoalanyl)-amino-3'-carboxybiphenyl], the IC50 on FTase [1] (Table 4, read-out: FTase IC50) was 210 µM.
Take `NC[C@H](N)CNc1ccc(-c2cccc(C(=O)O)c2)cc1` [FTI-292, (L)4(2,3-diaminopropyl)-amino-3'-carboxybiphenyl]: the IC50 at FTase [1] (Table 4, read-out: FTase IC50) stood at 60 µM.
Take `CCS(=O)(=O)NCC(N)C(=O)Nc1ccc(-c2cccc(C(=O)O)c2)cc1` (stereo not shown) [FTI-295, 4-(Ethylsulfonyl-3-aminoalanyl)-amino-3'-carboxy-biphenyl]: on FTase [1] (Table 4), the Selectivity is on record as above 5. For the same compound, the IC50 on FTase [1] (Table 4, read-out: FTase IC50) is 200 µM; on GGTase I (setting [3]) it was above 1000 µM.
The matching figures for `N[C@@H](CS)CNc1ccc(-c2cccc(-c3nnn[nH]3)c2)cc1` [FTI-2102, red.Cys-4-amino-3'-tetrazolylbiphenyl]: 187, 0.03 µM and 5 µM.
Consider `CC(C)C[C@H](NC(=O)c1ccc(NC[C@@H](N)CS)cc1-c1ccccc1)C(=O)O` [GGTI-287, 4-[2(R)-amino-3-mercaptopropyl]amino-2-phenylbenzoyl-(S)-leucine], for which the half-inhibitory concentration (IC50) on FTase [1] (Table 5, read-out: In Vitro IC50 FTase) was 0.025 µM; on GGTase I (Table 5, read-out: In Vitro IC50 GGTase I) it was 0.005 µM; on GGTase I (read-out: GGTase I IC50), 0.005 µM. The “selectivity for GGTase I over FTase” value at GGTase I stood at 5 fold.
In the case of “HCl-cysteine-4-aminobenzoyl methionine [FTI-232]”, the “selectivity for FTase over GGTase I” value at FTase [1] is listed as 10 fold. Also, the GG/F on FTase [1] (Table 1) was 6. The IC50 at FTase [1] (Table 1, read-out: FTase IC50) worked out at 0.213 µM; on FTase [1] (Table 4, read-out: FTase IC50), 0.15 µM; at GGTase I (setting [4]) it was 1.2 µM; on GGTase I (setting [3]), 1.5 µM. On FTase [1] (Table 4), the Selectivity is given as 10.
As for “TFA.cysteine-4-amino-1-naphthoyl methionine [FTI-270]”, the GG/F at FTase [1] (Table 1) was found to be 22. Besides, the IC50 at FTase [1] (Table 1, read-out: FTase IC50) came to 0.143 µM; on GGTase I (setting [4]) it was 3.15 µM.
The matching figures for “TFA.cysteine-4-amino-3-methylbenzoyl methionine [FTI-260]”: 11, 0.825 µM and 9 µM.

(Values after patent US5965539A, “Inhibitors of prenyl transferases” (Univeristy of Pittsburgh, priority 1996, dated 1999).)
